# Experimental data as given in patent US10995070B2, “Acetyl-CoA carboxylase modulators” (Monsanto Technology LLC, priority 2013, dated 2021).
# Key:
# Saccharomyces cerevisiae = test: Yeast growth inhibition assay; format: cell-based; conditions: read-out: S. cerevisiae % growth inhibition
# Experimental: Yeast cells (Ade2 strain) were grown in liquid YPD (1% yeast extract, 2% peptone, 2% dextrose) for 16 hours at 30° C. from previously sub-cultured plates of Saccharomyces cerevisiae. The OD600 of the overnight culture was checked via spectrophotometer and diluted to a concentration of 2×10^4 cells/ml.
# Chemistry stocks were dissolved in DMSO to a concentration of 10 mM. Chemistry stocks were further diluted in a 96-well stock plate to obtain final concentrations of […] in 1% DMSO. The final concentrations of the soraphen positive control were 400, 40, and 3.2 nM. The negative controls on each plate included a background subtraction control containing yeast and 1% DMSO (without chemistry) and a second contamination control containing YPD (with no yeast) and 1% DMSO (without chemistry).
# 98 μl liquid YPD was added to 2 μl diluted stock of DMSO per well and mixed thoroughly. After mixing, 100 μl of the diluted yeast solution was added to bring the final yeast concentration to 1×10^4 cells/ml or 2000 cells per well. An initial spectrophotometric reading at OD600 was conducted on the entire plate and served as the 0 hours time point used to subtract any background. […] […] […] All experiments were conducted in triplicate. Averages were reported along with standard deviation calculation to generate error bars. Each plate contained its own controls and consisted of inoculated+DMSO, non-inoculated+DMSO, and a titration series of soraphen at 400, 40, and 3.2 nM.
# Botrytis cinerea = test: Fungal growth inhibition assay, B. cinerea; format: cell-based; conditions: 48 h
# Source text: Spores were isolated from previously sub-cultured plates of Botrytis cinerea, Phytophthora capsici, Fusarium moniliforme, Fusarium viguliforme, Collectotrichum graminicola, and Diplodia maydis. All spores were filtered and collected in a sterile glass bowl to isolate the spores from the mycelia. The isolation and sub-culture plate condition for each pathogen is described below.
# Spore isolation for B. cinerea: A 2-3 week old V8 (17%)+CaCO3 (3 g/L)+20 g agar plate was removed from room temperature and the mycelia were treated with 5-10 ml of filter sterilized Triton X 100 (0.05%). The mycelia were scraped to re-suspend the spores. The spores were then collected in a sterile filter bowl containing a fluted piece of filter paper and poured into a conical tube.
# After spore isolation, pathogen spores were counted on a hemocytometer to calculate the spores/ml. In 17% V8 liquid media containing 3 g/L CaCO3, isolated spores were diluted to individual concentrations based on the growth curves at 48 hours of each pathogen. The spore concentrations for each pathogen were as follows: B. cinerea—10,000 sp/ml; P. capsici—300 sp/ml; F. monliforme—500 sp/ml; F. virguliforme—500 sp/ml; C. graminicola—3,000 sp/ml; and D. maydis—3,000 sp/ml.
# Chemistry stocks were dissolved in DMSO at 2.5 mg/ml. Chemistry was diluted in a 96-well stock plate in five-fold dilutions to obtain a final concentration of 50, 10, and 2 ppm in vitro. The final concentration of the positive control after the five-fold dilutions was as follows: soraphen—0.5, 0.1, and 0.02 ppm. Negative controls on each plate included 2% DMSO, water containing spores and media, and a blank for background subtraction.
# In a 96-well plate the spore solution, chemistries, and controls were combined to make the final solution concentrations mentioned above. Upon addition of the chemistry, an OD600 reading was done to assess chemical precipitation. […] Plate readings were repeated at 24 and 48 hrs. […]
SMILES,inhibition at 3.7 µM (Saccharomyces cerevisiae),inhibition at 11.1 µM (Saccharomyces cerevisiae),inhibition at 33.3 µM (Saccharomyces cerevisiae),inhibition at 100 µM (Saccharomyces cerevisiae),inhibition at 2 ppm (Botrytis cinerea; 2 ppm),inhibition at 10 ppm (Botrytis cinerea; 10 ppm),inhibition at 50 ppm (Botrytis cinerea; 50 ppm)
"O=C(O)Cc1ccc(-c2nc3ccccc3c(-c3ccccc3)c2Cl)s1 [Formula Ib-ii, 2-(5-(3-chloro-4-phenylquinolin-2-yl)thiophen-2-yl)acetic acid]",0%,0%,55%,79%,–,–,–
"O=C(O)Cc1ccc(-c2cc(-c3ccccc3)c3ccccc3n2)s1 [Formula Ib-iv, 2-(5-(4-phenylquinolin-2-yl)thiophen-2-yl)acetic acid]",0%,0%,15%,99%,0%,1%,42%
